# Structures can show the parent of a compound that is named as a salt.
# Target: human CXCR3-A receptor (Homo sapiens (Human), UniProt P49682)
# Assay: 125I-CXCL10 competition radioligand binding assay
# Conditions: displacement of 125I-CXCL10 from membranes of CHO cells expressing human recombinant CXCR3-A
# In short: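 Membranes from a recombinant cell line expressing human CXCR3-A (10-20 μg protein) were incubated with 125I-CXCL10 and test compound for 60 min at 25° C, then filtered onto PEI-soaked GF/B filters and gamma-counted. IC50 and Hill slope came from four-parameter nonlinear fitting of competition curves.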
# Chain of human CXCR3-A receptor (P49682 whole entry): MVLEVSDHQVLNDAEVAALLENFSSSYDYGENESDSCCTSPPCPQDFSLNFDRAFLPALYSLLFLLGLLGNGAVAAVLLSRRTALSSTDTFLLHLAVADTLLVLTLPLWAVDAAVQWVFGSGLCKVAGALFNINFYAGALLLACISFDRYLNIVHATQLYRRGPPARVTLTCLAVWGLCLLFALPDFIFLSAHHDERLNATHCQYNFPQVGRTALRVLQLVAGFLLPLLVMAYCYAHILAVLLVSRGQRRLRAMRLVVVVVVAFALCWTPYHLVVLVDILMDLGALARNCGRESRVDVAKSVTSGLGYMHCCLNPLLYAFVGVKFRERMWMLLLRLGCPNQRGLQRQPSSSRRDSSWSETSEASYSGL
row,Compound,IC50
1,"COc1cc(CN(C(C)c2ccc(Cl)c(F)c2)[C@H]2C[C@@H](C(=O)O)C2)ccc1OCCN1C(=O)CCC1=O (stereo partly drawn) [Example 142, cis-3-([1-(4-Chloro-3-fluoro-phenyl)-ethyl]-{4-[2-(2,5-dioxo-pyrrolidin-1-yl)-ethoxy]-3-methoxy-benzyl}-amino)-cyclobutanecarboxylic acid]",0.12 µM
2,"Cc1cc(CN([C@H]2C[C@@H](C(=O)O)C2)[C@H](C)c2ccc(Cl)cc2)ccc1CCCN1C(=O)CCC1=O [Example 143, cis-3-([(R)-1-(4-Chloro-phenyl)-ethyl]-{4-[3-(2,5-dioxo-pyrrolidin-1-yl)-propyl]-3-methyl-benzyl}-amino)-cyclobutanecarboxylic acid]",3 µM
3,"COc1cc(CN(C[C@H]2CC[C@H](C(=O)O)CC2)C(C)c2ccc3c(c2)CCC3)ccc1OCCN1C(=O)CN(C)C1=O (stereo partly drawn) [Example 145, trans-4-[((1-Indan-5-yl-ethyl)-{3-methoxy-4-[2-(3-methyl-2,5-dioxo-imidazolidin-1-yl)-ethoxy]-benzyl}-amino)-methyl]-cyclohexanecarboxylic acid]",0.146 µM
4,"COc1cc(CN([C@H]2C[C@@H](C(=O)O)C2)[C@H](C)c2ccc(Cl)c(F)c2)ccc1OCCN1C(=O)CCC1=O [Example 150, cis-3-([(R)-1-(4-Chloro-3-fluoro-phenyl)-ethyl]-{4-[2-(2,5-dioxo-pyrrolidin-1-yl)-ethoxy]-3-methoxy-benzyl}-amino)-cyclobutanecarboxylic acid]",0.098 µM
5,"CCc1cc(CN([C@H]2C[C@@H](C(=O)O)C2)[C@H](C)c2ccc(Cl)c(F)c2)ccc1OCCN1C(=O)CCC1=O [Example 151, cis-3-([(R)-1-(4-Chloro-3-fluoro-phenyl)-ethyl]-{4-[2-(2,5-dioxo-pyrrolidin-1-yl)-ethoxy]-3-ethyl-benzyl}-amino)-cyclobutanecarboxylic acid]",0.457 µM
6,"COc1cc(CN([C@H]2C[C@@H](C(=O)O)C2)[C@H](C)c2ccc(Cl)c(Cl)c2)ccc1OCCN1C(=O)CCC1=O [Example 152, cis-3-([(R)-1-(3,4-Dichloro-phenyl)-ethyl]-{4-[2-(2,5-dioxo-pyrrolidin-1-yl)-ethoxy]-3-methoxy-benzyl}-amino)-cyclobutanecarboxylic acid]",0.149 µM
7,"Cc1cc(CN([C@H]2C[C@@H](C(=O)O)C2)[C@H](C)c2ccc(Cl)cc2)ccc1OCCN1C(=O)CN(C)C1=O [Example 153, cis-3-([(R)-1-(4-Chloro-phenyl)-ethyl]-{3-methyl-4-[2-(3-methyl-2,5-dioxo-imidazolidin-1-yl)-ethoxy]-benzyl}-amino)-cyclobutanecarboxylic acid]",0.294 µM
8,"COc1cc(CN(C[C@H]2CC[C@H](C(=O)O)CC2)C(C)c2ccc(C(F)(F)F)cc2)ccc1OCCN1C(=O)CCC1=O (stereo partly drawn) [Example 154, trans-4-({{4-[2-(2,5-Dioxo-pyrrolidin-1-yl)-ethoxy]-3-methoxy-benzyl}-[1-(4-trifluoromethyl-phenyl)-ethyl]-amino}-methyl)-cyclohexanecarboxylic acid]",0.07 µM
9,"COc1cc(CN([C@H]2C[C@@H](C(=O)O)C2)[C@H](C)c2ccc3c(c2)CCC3)ccc1OCCn1c(=O)ccn(C)c1=O [Example 159, cis-3-(((R)-1-Indan-5-yl-ethyl)-{3-methoxy-4-[2-(3-methyl-2,6-dioxo-3,6-dihydro-2H-pyrimidin-1-yl)-ethoxy]-benzyl}-amino)-cyclobutanecarboxylic acid]",0.544 µM

# Results, then the compound that gave them:
row,IC50,Compound
1,0.167 µM,"COc1cc(CN(C[C@H]2CC[C@H](C(=O)O)CC2)C(C)c2ccc3c(c2)CCC3)ccc1OCCN1C(=O)CCC1=O (stereo partly drawn) [Example 144, trans-4-{[{4-[2-(2,5-Dioxo-pyrrolidin-1-yl)-ethoxy]-3-methoxy-benzyl}-(1-indan-5-yl-ethyl)-amino]-methyl}-cyclohexanecarboxylic acid]"
2,0.254 µM,"COc1cc(CN(C[C@H]2CC[C@H](C(=O)O)CC2)[C@H]2CCc3cc(Cl)ccc32)ccc1OCCN1C(=O)C2CC2C1=O (stereo partly drawn) [Example 146, -4-[(((S)-5-Chloro-indan-1-yl)-{4-[2-(2,4-dioxo-3-aza-bicyclo[3.1.0]hex-3-yl)-ethoxy]-3-methoxy-benzyl}-amino)-methyl]-cyclohexanecarboxylic acid]"
3,7 µM,"COc1cc(CN(C[C@H]2CC[C@H](C(=O)O)CC2)[C@H]2CCc3cc(Cl)ccc32)ccc1OCCN1C(=O)CC2(CCCC2)CC1=O [Example 147, 4-[(((S)-5-Chloro-indan-1-yl)-{4-[2-(7,9-dioxo-8-aza-spiro[4.5]dec-8-yl)-ethoxy]-3-methoxy-benzyl}-amino)-methyl]-cyclohexanecarboxylic acid]"
4,0.026 µM,"COc1cc(CN(C[C@H]2CC[C@H](C(=O)O)CC2)[C@H]2CCc3c2ccc(Cl)c3F)ccc1OCCN1C(=O)CCC1=O [Example 148, trans-4-[(((S)-5-Chloro-4-fluoro-indan-1-yl)-{4-[2-(2,5-dioxo-pyrrolidin-1-yl)-ethoxy]-3-methoxy-benzyl}-amino)-methyl]-cyclohexanecarboxylic acid]"
5,0.165 µM,"CCc1cc(CN(C[C@H]2CC[C@H](C(=O)O)CC2)[C@H]2CCc3c2ccc(Cl)c3F)ccc1OCCN1C(=O)CCC1=O [Example 149, trans-4-[(((S)-5-Chloro-4-fluoro-indan-1-yl)-{4-[2-(2,5-dioxo-pyrrolidin-1-yl)-ethoxy]-3-ethyl-benzyl}-amino)-methyl]-cyclohexanecarboxylic acid]"
6,2.87 µM,"COc1cc(CN(C[C@H]2CC[C@H](C(=O)O)CC2)[C@H]2CCc3cc(Cl)ccc32)ccc1OCCN1C(=O)[C@H]2CC=CC[C@H]2C1=O [Example 155, trans-4-[(((S)-5-Chloro-indan-1-yl)-{4-[2-((3aS,7aR)-1,3-dioxo-1,3,3a,4,7,7a-hexahydro-isoindol-2-yl)-ethoxy]-3-methoxy-benzyl}-amino)-methyl]-cyclohexanecarboxylic acid; hydrochloride]"
7,0.079 µM,"COc1cc(CN(C[C@H]2CC[C@H](C(=O)O)CC2)[C@H]2CCc3cc(Cl)ccc32)ccc1OCCN1C(=O)c2ccccc2C1=O [Example 156, trans-4-[(((S)-5-Chloro-indan-1-yl)-{4-[2-(1,3-dioxo-1,3-dihydro-isoindol-2-yl)-ethoxy]-3-methoxy-benzyl}-amino)-methyl]-cyclohexanecarboxylic acid; hydrochloride]"
8,0.071 µM,"Cc1cc(CN(C[C@H]2CC[C@H](C(=O)O)CC2)[C@H]2CCc3c2ccc(Cl)c3F)ccc1OCCN1C(=O)CN(C)C1=O [Example 157, trans-4-[(((S)-5-Chloro-4-fluoro-indan-1-yl)-{3-methyl-4-[2-(3-methyl-2,5-dioxo-imidazolidin-1-yl)-ethoxy]-benzyl}-amino)-methyl]-cyclohexanecarboxylic acid]"
9,1.06 µM,"COc1cc(CN(CC2CC(C(=O)O)C2)[C@H]2CCc3cc(Cl)ccc32)ccc1OCCN1C(=O)CCC1=O (stereo partly drawn) [Example 158, 3-[(((S)-5-Chloro-indan-1-yl)-{4-[2-(2,5-dioxo-pyrrolidin-1-yl)-ethoxy]-3-methoxy-benzyl}-amino)-methyl]-cyclobutanecarboxylic acid]"

# Same assay, conditions: read-out: % at 10 μM; at 10 μM; displacement of 125I-CXCL10
row,Compound,inhibition at 10 µM
1,"COc1cc(CN([C@H]2C[C@H](C(=O)O)C2)[C@H](C)c2ccc3c(c2)CCC3)ccc1OCCn1c(=O)ccn(C)c1=O [Example 160, trans-3-(((R)-1-Indan-5-yl-ethyl)-{3-methoxy-4-[2-(3-methyl-2,6-dioxo-3,6-dihydro-2H-pyrimidin-1-yl)-ethoxy]-benzyl}-amino)-cyclobutanecarboxylic acid]",26%
